In the supplement of paper PMC10307832 one finds relative viability data, which are given here for seven cell lines.

What all share (experiment): relative viability (nuclei count vs DMSO), 5 days (fraction); higher = more cells survive
Compound in test [1]: CC1=CC(=CC=C1)NC2=NC(=CS2)C3=CC=NC=C3
The procedure, abridged: (§1)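 Nuclei counted with MetaXpress define viability as the ratio of treated to vehicle wells, given as a median across plates. The lung cancer cell lines were in 1536-well plates, pinned with five √10-spaced library-drug doses and imaged at 4× after 5 days and Hoechst staining. Plates passed with control CV below 25% and at least one doubling.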

Compound in the next test: Cc1ccc(NC(=O)c2ccc(CN3CCN(C)CC3)cc2)cc1Nc1nc(-c2cccnc2)cs1 [Masitinib]
The procedure, abridged:
as §1

Compound in test [2]: CC1=CC(=CC=C1)NC2=NC(=CS2)C3=CC=NC=C3 + Cc1nc(NC(=O)N2CCC[C@H]2C(N)=O)sc1-c1ccnc(C(C)(C)C(F)(F)F)c1 [Alpelisib] (partner 2 µM)
The procedure, abridged: (§2)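 Lung cancer cell lines were seeded in 1536-well plates and dosed by pin tool the next day, with either a single drug or a fixed anchor-drug dose combined with five library-drug doses (not always all listed) spaced in √10 steps. Five days later, one step fixed the cells and stained their nuclei (final 0.05% Triton X-100, 1% formaldehyde, 1 ug/ml Hoechst), and nuclei were counted on 4× images. Relative viability is the nuclei count in treated wells divided by the count in vehicle wells, and each value is the median of duplicate plates.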

Compound in the test “Masitinib + Pemetrexed”: Cc1ccc(NC(=O)c2ccc(CN3CCN(C)CC3)cc2)cc1Nc1nc(-c2cccnc2)cs1 [Masitinib] + Nc1nc2[nH]cc(CCc3ccc(C(=O)N[C@@H](CCC(=O)O)C(=O)O)cc3)c2c(=O)[nH]1 [Pemetrexed] (partner 0.2 µM)
The procedure, abridged:
as §2

HCC-44: the relative viability in test [1] (0.08 µM) stood at 0.862; in test [1] (0.253 µM), 0.795; in test [1] (0.8 µM), 0.843; in test [1] (2.53 µM), 0.797; in test [1] (8 µM), 0.859; in the test with Masitinib (0.01 µM), 0.816. Besides, the relative viability stood at 1.01 with Masitinib (0.03162 µM); 0.978 in the test with Masitinib (0.1 µM); 0.871 in the test with Masitinib (0.3162 µM); 0.961 with Masitinib (1 µM); 0.601 in test [2] (first compound 0.08 µM); 0.497 in test [2] (first compound 0.253 µM). Further, the relative viability in test [2] (first compound 0.8 µM) came out at 0.56; in test [2] (first compound 2.53 µM), 0.644; in test [2] (first compound 8 µM) it was 0.608; with Masitinib + Pemetrexed (first compound 0.01 µM), 0.494; with Masitinib + Pemetrexed (first compound 0.03162 µM), 0.657; in the test with Masitinib + Pemetrexed (first compound 0.1 µM) it was 0.49. For the same cell line, the relative viability with Masitinib + Pemetrexed (first compound 0.3162 µM) is 0.617; in the test with Masitinib + Pemetrexed (first compound 1 µM), 0.578.
HCC-78: the relative viability was found to be 0.781 in test [1] (0.08 µM); 0.789 in test [1] (0.253 µM); 0.811 in test [1] (0.8 µM); 0.817 in test [1] (2.53 µM); 0.971 in test [1] (8 µM); 0.891 with Masitinib (0.01 µM). In addition, the relative viability in the test with Masitinib (0.03162 µM) turned out to be 0.814; with Masitinib (0.1 µM) it was 0.956; with Masitinib (0.3162 µM), 0.789; with Masitinib (1 µM), 0.902; in test [2] (first compound 0.08 µM), 0.26; in test [2] (first compound 0.253 µM), 0.284. The relative viability worked out at 0.365 in test [2] (first compound 0.8 µM); 0.317 in test [2] (first compound 2.53 µM); 0.366 in test [2] (first compound 8 µM); 0.933 with Masitinib + Pemetrexed (first compound 0.01 µM); 0.877 in the test with Masitinib + Pemetrexed (first compound 0.03162 µM); 0.887 in the test with Masitinib + Pemetrexed (first compound 0.1 µM). Moreover, the values for the relative viability with Masitinib + Pemetrexed (first compound 0.3162 µM) and in the test with Masitinib + Pemetrexed (first compound 1 µM) were 0.987 and 0.893, respectively.
Turning to HCC-366, the relative viability in test [1] (0.08 µM) was found to be 0.979; in test [1] (0.253 µM), 0.956; in test [1] (0.8 µM), 1.03; in test [1] (2.53 µM), 1.02; in test [1] (8 µM), 0.931; in the test with Masitinib (0.01 µM), 0.729. Further, the relative viability stood at 1.14 with Masitinib (0.03162 µM); 0.75 with Masitinib (0.1 µM); 0.977 with Masitinib (0.3162 µM); 0.994 in the test with Masitinib (1 µM); 0.306 in test [2] (first compound 0.08 µM); 0.215 in test [2] (first compound 0.253 µM). The relative viability in test [2] (first compound 0.8 µM) is 0.275; in test [2] (first compound 2.53 µM) it was 0.317; in test [2] (first compound 8 µM) it was 0.209; with Masitinib + Pemetrexed (first compound 0.03162 µM), 0.174; with Masitinib + Pemetrexed (first compound 0.1 µM), 0.148; with Masitinib + Pemetrexed (first compound 0.3162 µM) it was 0.137. Moreover, in the test with Masitinib + Pemetrexed (first compound 1 µM), the relative viability amounted to 0.146.
In the case of HCC-827, the relative viability in test [1] (0.08 µM) amounted to 0.963; in test [1] (0.253 µM) it was 0.982; in test [1] (0.8 µM), 0.951; in test [1] (2.53 µM), 1; in test [1] (8 µM), 0.7; with Masitinib (0.01 µM), 0.868. Moreover, the relative viability is 1.03 in the test with Masitinib (0.03162 µM); 0.888 with Masitinib (0.1 µM); 0.959 with Masitinib (0.3162 µM); 1.01 with Masitinib (1 µM); 0.946 in test [2] (first compound 0.08 µM); 0.913 in test [2] (first compound 0.253 µM). For the same cell line, the relative viability in test [2] (first compound 0.8 µM) is 0.907; in test [2] (first compound 2.53 µM), 1.03; in test [2] (first compound 8 µM), 0.836; with Masitinib + Pemetrexed (first compound 0.01 µM), 0.264; with Masitinib + Pemetrexed (first compound 0.03162 µM) it was 0.278; with Masitinib + Pemetrexed (first compound 0.1 µM), 0.255. In addition, the relative viability with Masitinib + Pemetrexed (first compound 0.3162 µM) stood at 0.185; in the test with Masitinib + Pemetrexed (first compound 1 µM), 0.257.
For the cell line HOP-62, the relative viability is 0.952 in test [1] (0.08 µM); 0.972 in test [1] (0.253 µM); 1.08 in test [1] (0.8 µM); 0.997 in test [1] (2.53 µM); 0.966 in test [1] (8 µM); 0.954 in the test with Masitinib (0.01 µM). The relative viability was 0.995 with Masitinib (0.03162 µM); 0.962 with Masitinib (0.1 µM); 1.08 in the test with Masitinib (0.3162 µM); 1.01 with Masitinib (1 µM); 0.932 in test [2] (first compound 0.08 µM); 0.809 in test [2] (first compound 0.253 µM). Further, the relative viability in test [2] (first compound 0.8 µM) was 1.1; in test [2] (first compound 2.53 µM), 1.06; in test [2] (first compound 8 µM) it was 1.17; with Masitinib + Pemetrexed (first compound 0.01 µM), 0.286; in the test with Masitinib + Pemetrexed (first compound 0.03162 µM), 0.325; with Masitinib + Pemetrexed (first compound 0.1 µM), 0.323. Also, the relative viability stood at 0.462 with Masitinib + Pemetrexed (first compound 0.3162 µM) and 0.404 with Masitinib + Pemetrexed (first compound 1 µM).
As for LC-2-ad, the relative viability is 0.877 in test [1] (0.08 µM); 0.916 in test [1] (0.253 µM); 0.967 in test [1] (0.8 µM); 0.839 in test [1] (2.53 µM); 0.785 in test [1] (8 µM); 0.806 in the test with Masitinib (0.01 µM). The relative viability with Masitinib (0.03162 µM) stood at 1.01; in the test with Masitinib (0.1 µM), 0.951; with Masitinib (0.3162 µM) it was 0.966; with Masitinib (1 µM) it was 0.944; in test [2] (first compound 0.08 µM), 0.859; in test [2] (first compound 0.253 µM), 0.698. The relative viability amounted to 0.812 in test [2] (first compound 0.8 µM); 0.813 in test [2] (first compound 2.53 µM); 0.817 in test [2] (first compound 8 µM); 0.265 with Masitinib + Pemetrexed (first compound 0.01 µM); 0.29 with Masitinib + Pemetrexed (first compound 0.03162 µM); 0.268 with Masitinib + Pemetrexed (first compound 0.1 µM). Besides, the relative viability is 0.248 in the test with Masitinib + Pemetrexed (first compound 0.3162 µM) and 0.247 in the test with Masitinib + Pemetrexed (first compound 1 µM).
Regarding LCLC-97TM1, the relative viability in test [1] (0.08 µM) is 0.763; in test [1] (0.253 µM), 0.818; in test [1] (0.8 µM) it was 0.96; in test [1] (2.53 µM), 0.927; in test [1] (8 µM) it was 0.974; in the test with Masitinib (0.01 µM), 0.803. Moreover, the relative viability amounted to 1.03 in the test with Masitinib (0.03162 µM); 0.869 with Masitinib (0.1 µM); 1.02 in the test with Masitinib (0.3162 µM); 0.928 with Masitinib (1 µM); 0.298 in test [2] (first compound 0.8 µM); 0.258 in test [2] (first compound 2.53 µM). For the same cell line, the relative viability in test [2] (first compound 8 µM) was 0.238; with Masitinib + Pemetrexed (first compound 0.01 µM), 0.168; with Masitinib + Pemetrexed (first compound 0.03162 µM), 0.154; in the test with Masitinib + Pemetrexed (first compound 0.1 µM) it was 0.169; in the test with Masitinib + Pemetrexed (first compound 0.3162 µM) it was 0.173; with Masitinib + Pemetrexed (first compound 1 µM) it was 0.168.
